Test results from ChEMBL document CHEMBL5518181, “Studies of antibacterial activity (in vitro and in vivo) and mode of action for des-acyl tridecaptins (DATs)” (Eur J Med Chem, 2024).
≈ marks a conversion by molar mass, not a printed value. Calls of active or inactive are those of the source. The calls are words filed in the database; no cut-off is given here.

How the values were obtained:
[1] = test system: Cell membrane; assay: Induction of membrane permeabilization in Escherichia coli ATCC 25922 at 64 ug/ml measured after 30 mins by Sytox Green labelling based microscopic analysis; format: cell membranes; conditions: dose 64.0 µg/ml
[2] = test system: Escherichia coli; assay: Antibacterial activity against colistin resistant Escherichia coli NCTC 13846 harboring mcr-1 gene assessed as inhibition of bacterial growth incubated for 18 hrs; format: functional; conditions: read-out: MIC100
[3] = Clearance in mouse microsomes; format: ADME, Microsome
[4] = test system: Escherichia coli; assay: Antibacterial activity against wild-type Escherichia coli ATCC 25922 assessed as inhibition of bacterial growth incubated for 18 hrs in presence of 50% heat inactivated human serum; format: functional; conditions: read-out: MIC100
[5] = test system: Klebsiella aerogenes; assay: Antibacterial activity against Enterobacter aerogenes ATCC 13048 assessed as inhibition of bacterial growth incubated for 18 hrs; format: functional; conditions: read-out: MIC100
[6] = test system: Escherichia coli; assay: Antibacterial activity against Escherichia coli ATCC 25922 assessed as inhibition of bacterial growth incubated for 18 hrs in presence of 2 mM MgCl2; format: functional, organism-based
[7] = test system: Klebsiella pneumoniae; assay: Antibacterial activity against Klebsiella pneumoniae ATCC BAA-2470 expressing NDM-1 assessed as inhibition of bacterial growth incubated for 18 hrs; format: functional; conditions: read-out: MIC100
[8] = test system: Klebsiella pneumoniae; assay: Antibacterial activity against Klebsiella pneumoniae ATCC 43816 assessed as inhibition of bacterial growth incubated for 18 hrs; format: functional; conditions: read-out: MIC100
[9] = test system: Pseudomonas aeruginosa; assay: Antibacterial activity against wild-type Pseudomonas aeruginosa PAO1 assessed as inhibition of bacterial growth incubated for 24 hrs; format: functional; conditions: read-out: MIC100
[10] = Aqueous solubility of compound at pH 4.6; format: physicochemical
[11] = test system: Cell membrane; assay: Induction of membrane permeabilization in Escherichia coli ATCC 25922 at 64 ug/ml measured after 2 hrs by Sytox Green labelling based microscopic analysis; format: cell membranes; conditions: dose 64.0 µg/ml
[12] = test system: Klebsiella pneumoniae; assay: Antibacterial activity against wild-type Klebsiella pneumoniae ATCC 13883 assessed as inhibition of bacterial growth incubated for 18 hrs in presence of 50% heat inactivated human serum; format: functional; conditions: read-out: MIC100
[13] = test system: Klebsiella pneumoniae; assay: Antibacterial activity against Klebsiella pneumoniae ATCC 13883 assessed as inhibition of bacterial growth incubated for 18 hrs in presence of 2 mM CaCl2; format: functional, organism-based
[14] = Clearance in rat microsomes; format: ADME, Microsome
[15] = test system: Acinetobacter baumannii; assay: Antibacterial activity against wild-type Acinetobacter baumannii ATCC 19606 assessed as inhibition of bacterial growth incubated for 20 hrs; format: functional; conditions: read-out: MIC100
[16] = Lipophilicity, logD of compound at pH 7.4; format: physicochemical; conditions: buffer
[17] = Drug uptake in Proteus mirabilis ATCC 7002 whole cells at 10 uM incubated for 10 mins by LC-MS/MS analysis; format: ADME
[18] = test system: Proteus mirabilis; assay: Antibacterial activity against Proteus mirabilis ATCC 7002 assessed as inhibition of bacterial growth incubated for 18 hrs; format: functional; conditions: read-out: MIC100
[19] = test system: Escherichia coli; assay: Antibacterial activity against Escherichia coli ATCC 25922 harboring tolC knock-out assessed as inhibition of bacterial growth incubated for 18 hrs; format: functional; conditions: read-out: MIC100
[20] = test system: Staphylococcus aureus; assay: Antibacterial activity against wild type Staphylococcus aureus USA300 assessed as inhibition of bacterial growth incubated for 18 hrs; format: functional; conditions: read-out: MIC100
[21] = test system: Salmonella typhimurium; assay: Antibacterial activity against Salmonella typhimurium ATCC 13311 assessed as inhibition of bacterial growth incubated for 18 hrs; format: functional, Salmonella enterica subsp. enterica serovar Typhimurium; conditions: Salmonella enterica, read-out: MIC100
[22] = test system: Morganella morganii; assay: Antibacterial activity against Morganella morganii ATCC 25830 assessed as inhibition of bacterial growth incubated for 18 hrs; format: functional; conditions: read-out: MIC100
[23] = Drug uptake in Escherichia coli ATCC 25922 at 10 uM incubated for 10 mins by LC-MS/MS analysis; format: ADME
[24] = Drug uptake in Pseudomonas aeruginosa PAO1 whole cells at 10 uM incubated for 10 mins by LC-MS/MS analysis; format: ADME
[25] = test system: Klebsiella pneumoniae; assay: Antibacterial activity against Klebsiella pneumoniae ATCC 13883 assessed as inhibition of bacterial growth incubated for 18 hrs in presence of 150 mM NaCl; format: functional, organism-based
[26] = test system: Enterobacter cloacae; assay: Antibacterial activity against Enterobacter cloacae ATCC 23355 assessed as inhibition of bacterial growth incubated for 18 hrs; format: functional; conditions: read-out: MIC100
[27] = Hemolytic activity in human red blood cells at 400 ug/ml incubated for 45 mins by spectrophotometric analysis relative to control; format: toxicity, cell-based, Erythrocyte; conditions: red blood cells (erythrocytes), at 400 µg/mL, read-out: Activity
[28] = test system: Escherichia coli; assay: Antibacterial activity against Escherichia coli ATCC 25922 assessed as inhibition of bacterial growth incubated for 18 hrs in presence of 150 mM NaCl; format: functional, organism-based
[29] = Cytotoxicity against human HepG2 cells incubated for 40 hrs by celltiter-glo luminescent cell viability assay; format: toxicity, cell-based
[30] = Drug uptake in Acinetobacter baumannii ATCC 19606 whole cells at 10 uM incubated for 10 mins by LC-MS/MS analysis; format: ADME
[31] = test system: Klebsiella pneumoniae; assay: Antibacterial activity against wild-type Klebsiella pneumoniae ATCC 13883 assessed as inhibition of bacterial growth incubated for 18 hrs; format: functional; conditions: read-out: MIC100
[32] = test system: Serratia marcescens; assay: Antibacterial activity against intrinsically colistin resistant Serratia marcescens ATCC 13880 assessed as inhibition of bacterial growth incubated for 18 hrs; format: functional; conditions: read-out: MIC100
[33] = test system: Escherichia coli; assay: Antibacterial activity against Escherichia coli ATCC BAA-2469 expressing NDM-1 assessed as inhibition of bacterial growth incubated for 18 hrs; format: functional; conditions: read-out: MIC100
[34] = test system: Klebsiella pneumoniae; assay: Antibacterial activity against Klebsiella pneumoniae ATCC 13883 assessed as inhibition of bacterial growth incubated for 18 hrs in presence of 25 mM bicarbonate; format: functional, organism-based
[35] = test system: Klebsiella pneumoniae; assay: Antibacterial activity against Klebsiella pneumoniae ATCC 13883 assessed as inhibition of bacterial growth incubated for 18 hrs in presence of 2 mM MgCl2; format: functional, organism-based
[36] = test system: Pseudomonas aeruginosa; assay: Antibacterial activity against efflux-deficient Pseudomonas aeruginosa PAO750 assessed as inhibition of bacterial growth incubated for 18 hrs; format: functional; conditions: read-out: MIC100
[37] = Drug localization in cytoplasm of Escherichia coli ATCC 25922 at 10 uM incubated for 10 mins by LC-MS/MS analysis; format: ADME, subcellular
[38] = Clearance in human microsomes; format: ADME, Microsome
[39] = test system: Escherichia coli; assay: Antibacterial activity against Escherichia coli ATCC 25922 assessed as inhibition of bacterial growth incubated for 18 hrs in presence of 5 mM KCl; format: functional, organism-based
[40] = test system: Escherichia coli; assay: Antibacterial activity against Escherichia coli ATCC 25922 assessed as inhibition of bacterial growth incubated for 18 hrs in presence of 2 mM CaCl2; format: functional, organism-based
[41] = test system: Escherichia coli; assay: Antibacterial activity against wild-type Escherichia coli ATCC 25922 assessed as inhibition of bacterial growth incubated for 18 hrs; format: functional; conditions: read-out: MIC100
[42] = Binding affinity to gram negative bacterial lipid II assessed as dissociation constant by ITC analysis; parameters: species or system Bacteria
[43] = test system: Klebsiella pneumoniae; assay: Antibacterial activity against Klebsiella pneumoniae ATCC 13883 assessed as inhibition of bacterial growth incubated for 18 hrs in presence of 5 mM KCl; format: functional, organism-based
[44] = test system: Proteus mirabilis; assay: Antibacterial activity against Proteus mirabilis ATCC 25933 assessed as inhibition of bacterial growth incubated for 18 hrs; format: functional; conditions: read-out: MIC100
[45] = test system: Cell membrane; assay: Induction of membrane permeabilization in Klebsiella pneumoniae ATCC 13883 at 64 ug/ml measured after 30 mins by Sytox Green labelling based microscopic analysis; format: cell membranes; conditions: dose 64.0 µg/ml
[46] = test system: Citrobacter freundii; assay: Antibacterial activity against Citrobacter freundii ATCC 8090 assessed as inhibition of bacterial growth incubated for 18 hrs; format: functional; conditions: read-out: MIC100
[47] = test system: Providencia stuartii; assay: Antibacterial activity against Providencia stuartii ATCC 25826 assessed as inhibition of bacterial growth incubated for 18 hrs; format: functional; conditions: read-out: MIC100
[48] = test system: Escherichia coli; assay: Antibacterial activity against Escherichia coli ATCC 25922 harboring hldE knock-out assessed as inhibition of bacterial growth incubated for 18 hrs; format: functional; conditions: read-out: MIC100
[49] = test system: Cell membrane; assay: Induction of membrane permeabilization in Klebsiella pneumoniae ATCC 13883 at 64 ug/ml measured after 2 hrs by Sytox Green labelling based microscopic analysis; format: cell membranes; conditions: dose 64.0 µg/ml
[50] = target: Lipopolysaccharide (LPS); assay: Binding affinity to Pseudomonas aeruginosa LPS assessed as dissociation constant by ITC analysis; format: subcellular
[51] = test system: Cell membrane; assay: Induction of membrane permeabilization in Escherichia coli ATCC 25922 at 64 ug/ml measured immediately by Sytox Green labelling based microscopic analysis; format: cell membranes; conditions: dose 64.0 µg/ml
[52] = test system: Lipopolysaccharide (LPS); assay: Binding affinity to Escherichia coli O55:B5 LPS assessed as dissociation constant by ITC analysis; format: subcellular
[53] = Drug uptake in Escherichia coli ATCC 25922 whole cells at 10 uM incubated for 10 mins by LC-MS/MS analysis; format: ADME
[54] = test system: Staphylococcus aureus; assay: Antibacterial activity against […] assessed as inhibition of bacterial growth incubated for 18 hrs; format: functional; conditions: ATCC 29213, read-out: MIC100
[55] = Aqueous solubility of compound at pH 7.4; format: physicochemical
[56] = test system: Escherichia coli; assay: Antibacterial activity against Escherichia coli ATCC 25922 assessed as inhibition of bacterial growth incubated for 18 hrs in presence of 25 mM bicarbonate; format: functional, organism-based
[57] = Hydrophobicity of compound assessed as %MeCN at peak elution by RP-HPLC analysis; format: physicochemical

CC[C@H](C)[C@@H](NC(=O)[C@@H](NC(=O)[C@H](CCC(=O)O)NC(=O)[C@H](Cc1ccccc1)NC(=O)[C@@H](CCN)NC(=O)[C@H](CCN)NC(=O)[C@H](CO)NC(=O)[C@@H](Cc1c[nH]c2ccccc12)NC(=O)[C@@H](CO)NC(=O)CNC(=O)[C@@H](CCN)NC(=O)[C@H](N)C(C)C)C(C)C)C(=O)N[C@@H](C)C(=O)O
Activity [1]: inactive
MIC [2]: 32 µg/mL (≈ 22.9 µM)
microsomal CLint [3]: 25 µL/min/mg
MIC [4]: 32 µg/mL
MIC [5]: > 32 µg/mL
Activity [6]: Active
MIC [7]: 32 µg/mL (≈ 22.9 µM)
MIC [8]: 8 µg/mL (≈ 5.74 µM)
MIC [9]: > 64 µg/mL
solubility [10]: > 1000 µg/mL
Activity [11]: Active
MIC [12]: 8 µg/mL
Activity [13]: Active
microsomal CLint [14]: 108 µL/min/mg
MIC [15]: 32 µg/mL (≈ 22.9 µM)
logD [16]: 1.09
Drug uptake [17]: ~ 60 ng
MIC [18]: > 64 µg/mL
MIC [19]: > 32 µg/mL
MIC [20]: > 32 µg/mL
MIC [21]: > 32 µg/mL
MIC [22]: > 32 µg/mL
Drug uptake [23]: Active
Drug uptake [24]: ~ 60 ng
Activity [25]: Active
MIC [26]: > 32 µg/mL
hemolysis at 0.75 h, 400 ug/ml [27]: 3.6%
Activity [28]: Active
IC50 at 40 h [29]: 76 µg/mL (≈ 54.5 µM)
Drug uptake [30]: ~ 60 ng
MIC [31]: 32 µg/mL (≈ 22.9 µM)
MIC [32]: 32 µg/mL (≈ 22.9 µM)
MIC [33]: > 32 µg/mL
Activity [34]: Active
Activity [35]: Active
MIC [36]: > 32 µg/mL
Drug uptake [37]: Active
microsomal CLint [38]: 22 µL/min/mg
Activity [39]: Active
Activity [40]: Active
MIC [41]: 32 µg/mL (≈ 22.9 µM)
Kd [42]: 0.6 µM
Activity [43]: Active
MIC [44]: > 32 µg/mL
Activity [45]: inactive
MIC [46]: 32 µg/mL (≈ 22.9 µM)
MIC [47]: > 32 µg/mL
MIC [48]: 8 µg/mL (≈ 5.74 µM)
Activity [49]: Active
Kd [50]: 13.5 µM
Activity [51]: inactive
Kd [52]: 5.7 µM
Drug uptake [53]: ~ 60 ng
MIC [54]: 32 µg/mL (≈ 22.9 µM)
solubility [55]: > 1000 µg/mL
Activity [56]: Active
MeCN percentage at peak elution [57]: 42%
